Test results reported in patent US12545668B2, “Cyclic amine derivative as agent for promoting advillin function, and novel cyclic amine derivative and pharmaceutical use thereof” (Toray Industries, Inc., priority 2018, dated 2026).

Key:
[1] = Specific binding of 3H-labeled compound to membrane fraction prepared from rat spinal cord; details: 3H-labeled compound of Example 7, 37° C., 1 hour; relative to dorsal root ganglion
Description: (§1) A binding property of a ^3H-labeled cyclic amine derivative (I) to each of membrane fractions prepared from various tissues of a rat was evaluated, and thus, a tissue containing a molecular target of the cyclic amine derivative (I) was clarified.
(§2) As the cyclic amine derivative (I), the compound of Example 7 was used.
(§3) Male SD rats (manufactured by Charles River Laboratories Japan, Inc.) of 7 weeks old were used. Rats were anesthetized with isoflurane, and euthanized by exsanguination from the abdominal aorta using a syringe having an inner wall treated with a heparin sodium injection (manufactured by AY Pharmaceuticals Co., Ltd.). […]
(§4) A homogenate sample of each tissue thus collected was prepared, using a homogenizer, by adding a homogenize buffer (sucrose (1 M), Tris-HCl (0.5 M), and 1× protease inhibitor cocktail (manufactured by Sigma Aldrich), pH 7.6) to the collected tissue. […] The resultant supernatant was ultracentrifuged at 100,000×g at 4° C. for 60 minutes, and the thus obtained precipitate was suspended in Krebs-Ringer bicarbonate buffer (manufactured by Sigma Aldrich) to quantitatively determine the amount of protein using a BCA protein assay kit (manufactured by Thermo Fisher Scientific K.K.). […]

[2] = Specific binding of 3H-labeled compound to membrane fractions prepared from the other rat tissues; details: 3H-labeled compound of Example 7, 37° C., 1 hour; relative to dorsal root ganglion
Description: as §1, §2, §3, §4

[3] = test system: primary cultured cells of rat dorsal root ganglion; assay: Axon (neurite) extension in primary cultured cells of rat dorsal root ganglion with oxaliplatin-induced axonal injury; assay type: cell-based; details: 7 days
From the text: The effect of the cyclic amine derivative (I) or a pharmacologically acceptable salt thereof on neurite extension in primary cultured cells of rat dorsal root ganglion was examined.
Male SD rats (manufactured by Charles River Laboratories Japan, Inc.) of 4 to 7 weeks old were used. Each rat was anesthetized by intraperitoneally administering urethane. After confirming that the rat was anesthetized, the rat was rapidly euthanized by exsanguination from the abdominal aorta. After incision of the dorsal part, the spinal column was excised and cooled on ice. The dorsal side of the spinal column was cut off, and the spinal cord was removed from the ventral side of the spinal column to expose the dorsal root ganglia on the ventral side of the spinal column. The dorsal root ganglia (L3 to 6, right and left) were excised with tweezers, and dipped in ice-cold Leibovitz's L-15 medium (manufactured by Thermo Fisher Scientific), and the bundles of nerve fibers were removed under a stereoscopic microscope. The dorsal root ganglia from which the bundles of nerve fibers had been removed were made fine slits with ophthalmic scissors to be used as dorsal root ganglion pieces.
The dorsal root ganglion pieces were dipped in about 3 mL of a solution of collagenase A (manufactured by Roche Molecular Systems, Inc.), followed by incubation at 37° C. for 20 minutes. After the incubation, the resultant was centrifuged at 200×g at 25° C. for 5 minutes to remove a collagenase A solution corresponding to the supernatant. About 1 mL of a solution of trypsin was added thereto, followed by incubation at 37° C. for 5 minutes. Subsequently, about 3 mL of DMEM (manufactured by Thermo Fisher Scientific K.K.) containing 10% fetal bovine serum was added to the resultant, the resultant centrifuged at 200×g at room temperature for 5 minutes, and then the supernatant removed. […]

CN(C)C1CCN(C(=O)C[C@H](O)c2nccn2C)CC1 [Example 7, (S)-1-(4-(dimethylamino)piperidin-1-yl)-3-hydroxy-3-(1-methyl-1H-imidazol-2-yl)propan-1-one]
specific binding to the membrane fraction prepared from the spinal cord, as % of the specific binding to the dorsal root ganglion membrane fraction [1]: 23%
specific bindings to the membrane fractions prepared from the other tissues including the brain, as % of the specific binding to the dorsal root ganglion membrane fraction [2]: less than 1%
length of a neurite compared to the oxaliplatin alone treated group ([3]; 100 μM with oxaliplatin 3 μM, FIG. 4, FIG. 5, p<0.025 Williams): significantly increased
length of a neurite compared to the oxaliplatin alone treated group ([3]; 10, 30 or 100 μM with oxaliplatin 3 μM, FIG. 5): found to increase
